For one test, the system named is IKH. In kind it is cell-based, canine. The conditions noted are these: for IC50: extracellular ion, read-out: IC50 for time-dependent IKH; for effect on IKH (in words): substance alone; for increase of IKH tail currents: following a pulse to −120 mV; for IKH tail current: following hyperpolarization to −120 mV; for IKH mean current density: at −100 mV; for IKH activation by carbachol after pertussis toxin pretreatment (in words): 1.5 mg l−1 PTX, 37° C., at least 9 h. The procedure: (§1) Adult mongrel dogs of either sex (weighing about 20-35 kg) were anaesthetized with pentobarbital (30 mg kg^−1 I.V.) and artificially ventilated with room air. Hearts and adjacent lung tissue were relatively quickly excised through a left lateral thoracotomy and immersed in oxygenated Tyrode solution (composition detailed hereinbelow) at room temperature. […] A left atrial (LA) preparation with the PVs intact was perfused via the left circumflex coronary artery, and subjected to either standard fine-tipped microelectrode recording of action potentials (APs) or cardiomyocyte isolation with collagenase-containing solutions, as previously described (Ehrlich et al. 2003). Six dogs were subjected to atrial tachycardia-induced remodeling induced by 1 week of atrial pacing at about 400 beats min^−1 after ablation of the AV node, as described in Li et al. 1999. Animal care and handling procedures followed the guidelines of the Canadian Council on Animal Care.
To isolate LA and PV cardiomyocytes, the proximal circumflex artery was cannulated and the distal ends of PV myocardial sleeves (approximately 1-1.5 cm from the PV-LA junction) were marked with silk thread prior to subsequent enzyme perfusion with collagenase (100 U ml^−1, Worthington, type II), in order to facilitate localization of PV sleeves after enzymatic digestion. […] All comparisons were based on PV and LA cardiomyocytes isolated from each dog on each experimental day. After isolation, cells were stored at 4° C. and studied on the same day. For standard microelectrode experiments, intact tissue preparations including the LA and adjacent PVs were mounted in a chamber and perfused via the circumflex artery with oxygenated Krebs solution at 36±0.5° C. (see for example Kneller et al. 2002).
(§2) Currents were recorded with the whole-cell patch-clamp technique at 36±0.5° C., as described in Yue et al. 1996. All junction potentials were zeroed prior to formation of gigaohm seals. […] Capacitance was assessed using 5 mV, 10 ms hyperpolarizing steps from a holding potential (HP) of −60 mV. […] Original recordings are shown in terms of current amplitude, but mean data are presented as current density (pA pF−1) to control for variability in cell size.
(§3) Currents were recorded with hyperpolarizing and depolarizing pulses (generally 4 s duration) from a HP of −40 mV to selected test potentials (TPs). Recordings were repeated 3 times, and mean values obtained. For the determination of reversal potentials, tail currents were recorded after 1.6 s pulses to −120 mV followed by 3.2 s depolarizations to TPs between −110 and +20. All voltage protocols were delivered at 0.1 Hz.
(§4) Tyrode solution contained (mM): NaCl 136, KCl 5.4, MgCl2 1, CaCl2 1, NaH2PO4 0.33, Hepes 5 and dextrose 10 (pH 7.35 with NaOH). The cell-storage solution contained (mM): KCl 20, KH2PO4 10, dextrose 10, mannitol 40, L-glutamic acid 70, β-OH-butyric acid 10, taurine 20, EGTA 10 and 0.1% bovine serum albumin (pH 7.3, KOH). Nifedipine (5 μM) was used to suppress L-type Ca^2+ current (ICa) in all experiments. 4-Aminopyridine (4-AP, 2 mM) was added to suppress transient outward current (Ito). […] Na+ current (INa) contamination was avoided by using a HP of −40 mV for recording of hyperpolarization-induced currents and by substitution of equimolar Tris-HCl for external NaCl for tail-current recordings.

The subject of test [1] is instantaneous inward-rectifier current. In words: Whole-cell patch-clamp of instantaneous inward-rectifier current in canine cardiomyocytes. The class given is cell-based. Particulars: at −120 mV, extracellular ion. The procedure: as §1
To isolate LA and PV cardiomyocytes, the proximal circumflex artery was cannulated and the distal ends of PV myocardial sleeves (approximately 1-1.5 cm from the PV-LA junction) were marked with silk thread prior to subsequent enzyme perfusion with collagenase (100 U ml^−1, Worthington, type II), in order to facilitate localization of PV sleeves after enzymatic digestion. […] All comparisons were based on PV and LA cardiomyocytes isolated from each dog on each experimental day. After isolation, cells were stored at 4° C. and studied on the same day. […]
Currents were recorded with the whole-cell patch-clamp technique at 36±0.5° C., as described in Yue et al. 1996. […] Capacitance was assessed using 5 mV, 10 ms hyperpolarizing steps from a holding potential (HP) of −60 mV. […]
Currents were recorded with hyperpolarizing and depolarizing pulses (generally 4 s duration) from a HP of −40 mV to selected test potentials (TPs). […] For the determination of reversal potentials, tail currents were recorded after 1.6 s pulses to −120 mV followed by 3.2 s depolarizations to TPs between −110 and +20. […]

For the next test, the system named is holding current. In words: Holding current in whole-cell patch-clamp of cardiomyocytes. In kind it is cell-based, canine. The method, then:
as §2, §3
as §4, with “recordings. When different external K^+ concentrations were applied, the osmolarity was kept constant by proportionate reduction of NaCl content in the solution. The standard internal solution contained (mM): potassium aspartate 110, KCl 20, MgCl2 1, MgATP 5, GTP (lithium salt) 0.1, Hepes 10, sodium phosphocreatine 5 and EGTA 5.0 (pH 7.3 with KOH). In experiments with K+-free internal solution, potassium aspartate was replaced by equimolar caesium aspartate and KCl by CsCl and pH was set to 7.3 with CsOH. For standard-microelectrode experiments, a solution containing (mM): NaCl 120, KCl 4, KH2PO4 1.2, MgSO4 1.2, NaHCO3 25, CaCl2 1.25 and dextrose 5 (95% O2-5% CO2, pH 7.4) was used to perfuse the tissue.” for “recordings.”
Stock solutions of BaCl2 (1 M) and CsCl (1 M) were produced initially and used throughout the experiments. Stock solution of isoproterenol was prepared under protection from light on the day of experiments and freshly prepared ascorbic acid (100 μM) was added in order to prevent isoproterenol oxidization. Carbachol (1 μM) was dissolved in Tyrode solution, tertiapin-Q in 0.1% acetic acid. GTPS (0.1 mM) was used in place of GTP in internal solutions for some experiments. For experiments involving pertussis toxin (PTX, stock solution dissolved in distilled H2O) cells were incubated at 37° C. in 1.5 mg I-1 PTX for at least 9 h prior to experiments. Parallel controls were performed with cells from the same isolates incubated in the same fashion and the same solution, but without PTX. […] Unless otherwise specified, drugs were obtained from Sigma.

Where two headings read alike, the source gives them in different places.

`[Ba+2].[Cl-].[Cl-]` [Ba^2+, BaCl2]: the “inhibition of IKH (in words)” value with IKH (1 μM, most cells) is recorded as “inhibited IKH appreciably”; in the test on IKH (10 μM), “full inhibition”. Further, the IC50 in the test with IKH (at −120 mV) stood at 2 ± 0.3 µM; in test [1], 76 ± 17.9 µM.
On to `[Cl-].[Cs+]` [Cs^+, CsCl], for which the IC50 in the test on IKH (at −120 mV) was found to be 184 ± 18.2 µM; in test [1] it was 139 ± 34.2 µM.
Regarding `Nc1nc2c(ncn2[C@@H]2O[C@H](COP(=O)(O)OP(=O)(O)OP(O)(O)=S)[C@@H](O)[C@H]2O)c(=O)[nH]1` [GTPS], the “further IKH response to carbachol with GTPS in the pipette (in words)” value in the test on IKH (GTPS 0.1 mM in place of GTP) is listed as “fully prevented”. This compound had an IKH current density in the test on IKH (at −120 mV, GTPS in pipette, no cholinergic stimulation (regular GTP −3.8±0.6)) of −8.2±0.8 pA pF^−1. Also, the “effect on IKH (in words)” value in the test with IKH is “increased”.
In the case of `C[N+](C)(C)CCOC(N)=O` [carbachol], the “average increase of IKH” value in the test with IKH (1 μM carbachol, voltages between −120 and −90 mV, PV cells) is recorded as 188±54%. Besides, the IKH current density is reported as −10.0±1.2 pA pF^−1 in the test with IKH (at −120 mV, 1 μM carbachol, GTP-containing pipettes (before −6.2±1.0)); −8.3±1.1 pA pF^−1 with IKH (at −120 mV, 1 μM carbachol, GTP-free pipettes (before −8.3±0.7)); −4.9±1.1 pA pF^−1 in the test on IKH (at −120 mV, 1 μM carbachol, LA cells (baseline −1.9±0.4)); −5.0±0.6 pA pF^−1 with IKH (at −120 mV, 1 μM carbachol, PV cells (baseline −2.6±0.5)). The IKH density in the test with IKH (at −120 mV, carbachol, cells incubated without PTX at 37° C. >9 h (before −6.2±1.8)) is listed as −11.5±1.8 pA pF^−1; with IKH (at −120 mV, carbachol, cells preincubated with PTX), −5.5±1.2 pA pF−1. Further, the “increase of IKH tail currents” value in the test on IKH (carbachol, PTX-treated cells) is 127±37%; in the test with IKH (carbachol, cells incubated without PTX), 538±170%. Moreover, the IKH tail current in the test on IKH (after carbachol, PTX-free conditions (before 2.1±0.7)) was 8.4±1.6 pA pF^−1; in the test with IKH (after carbachol, PTX-preincubated cells), 3.4±0.9 pA pF^−1. In addition, the “effect on IKH (in words)” value with IKH is “increased”.
In the case of `CC(C)NCC(O)c1ccc(O)c(O)c1` (stereo not shown) [isoproterenol], the “time to steady-state effect on IKH” value with IKH (1 μM isoproterenol, PV cell) is given as at most 2 min. The “IKH mean current density” value in the test with IKH (10 nM isoproterenol (control −0.9±0.1)) was −1.2±0.1 pA pF^−1; with IKH (100 nM isoproterenol (control −0.9±0.1)), −1.4±0.2 pA pF^−1; in the test with IKH (1000 nM isoproterenol (control −0.9±0.1)), −1.5±0.1 pA pF^−1. Further, the mean end-pulse current in the test on IKH (at −120 mV, 1 μM isoproterenol in the presence of 200 nM tertiapin-Q) was 0.20±0.07 pA pF^−1. Moreover, the “effect on IKH (in words)” value in the test on IKH is listed as “increased”. In addition, the entries for the “increase of holding current” value in the test on holding current (10 nM isoproterenol), in the test on holding current (100 nM isoproterenol) and in the test on holding current (1000 nM isoproterenol) were 59±14%, 89±33% and 144±37%, respectively. Also, the holding current in the test with holding current (10 nM isoproterenol (control 44±11)) is 65±14 pA pF−1; in the test with holding current (100 nM isoproterenol (control 44±11)), 70±13 pA pF−1; in the test with holding current (1000 nM isoproterenol (control 44±11)), 87±14 pA pF−1.
As to pertussis toxin, the “IKH activation by carbachol after pertussis toxin pretreatment (in words)” value with IKH (1 μM carbachol) was “prevented”; with IKH (1 μM carbachol, listed as PTX), “attenuated”. The IKH density with IKH (at −120 mV, cells preincubated with PTX, before carbachol) is −6.4±0.8 pA pF^−1. The IKH tail current with IKH (PTX-preincubated cells, before carbachol) was determined as 1.8±0.6 pA pF^−1.

Source of the values: patent publication US20060094003A1, “Acetylcholine-dependent current as a novel ionic target for atrial fibrillation” (priority 2004, published 2006).
